In publication PMC5750218, “Protein-inspired antibiotics active against vancomycin- and daptomycin-resistant bacteria” (Nature Communications, 2018):
Converted amounts (≈) assume the structure as drawn.

What was measured:
[1] = system: Vancomycin-resistant S. aureus NARSA VRS4; assay: microbe, parasite or virus in culture; type: cell-based, Staphylococcus aureus
Cytotoxicity MTT assay [2] = type: cell-based, human; conditions: human
Outline: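 Duplicate wells were used, with viability calculated against untreated and positive-control wells. Readout was MTT reduction: 2 h with 0.4 mg mL^−1 MTT, formazan dissolved in DMSO, absorbance at 570 nm. Before that, compound was applied 24 h at 37 °C over 100–0.046 µM (threefold dilutions) to HepG2 or HEK293 cells seeded 24 h earlier in DMEM/1% FBS.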

Cytotoxicity MTT assay [3] = type: cell-based, human; conditions: human; remark: listed apart in the source
S. aureus ATCC 43300 = assay: Membrane permeability assay (propidium iodide); type: cell-based, Staphylococcus aureus
Procedure: To evaluate the ability of the compounds to disrupt the cytoplasmic membrane integrity, the membrane impermeable fluorescent DNA intercalating dye propidium iodide (PI) was used. Early exponential phase cells were pelleted and washed twice in 10 mM HEPES buffer (pH 7.4) containing 50 µg mL^−1 of CaCl2 and 5 mM glucose, and then re-suspended in the same buffer (4 × 10^8 CFU mL^−1). Cell suspension was added to a 384-well black walled polystyrene plate (Corning, CLS3573) containing compounds, giving a final concentration of 16 µg mL^−1. After 1 h incubation at 37 °C, 5 µg mL^−1 of PI was added and fluorescence was monitored for 90 min using a Tecan Infinite® m1000 Pro Multi-mode reader (excitation/emission 535/620 nm). Data were corrected by subtraction of fluorescence signal arising from untreated cells in the presence of PI. […] Each sample was tested in quadruplicate and independent assays were performed twice showing similar results. Data was analysed and presented using Prism software.

[4] = system: Methicillin-resistant S. aureus ATCC 43300; assay: microbe, parasite or virus in culture
Outline: (§1)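 Each compound was serially diluted twofold in Mueller Hinton broth, spanning 8 to 0.003 µg mL^−1, and incubated with bacteria for 24 h at 37 °C before visual scoring of growth.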

[5] = system: Multi-drug-resistant S. pneumoniae ATCC 700677; assay: microbe, parasite or virus in culture; conditions: ATCC 700677
Outline: as §1

[6] = system: Vancomycin-intermediate S. aureus NRS1; assay: microbe, parasite or virus in culture; conditions: Vancomycin-intermediate NRS1
Outline: as §1

[7] = system: Vancomycin-resistant (VanA) Enterococcus faecium ATCC 51559; assay: microbe, parasite or virus in culture; conditions: ATCC 51559
Outline: as §1

Row | Compound | MIC VRSA ([1]; Vancomycin-resistant NARSA VRS4) [µg/mL] | CC50 at 24 h (Cytotoxicity MTT assay [2]) [µM] | CC50 at 24 h (Cytotoxicity MTT assay [3]) [µM] | Membrane permeabilisation (propidium iodide fluorescence) (S. aureus ATCC 43300) | MIC S. aureus ATCC 43300 MRSA, NBS [4] [µg/mL] | MIC S. aureus ATCC 43300 MRSA, PP [4] [µg/mL] | MIC S. aureus ATCC 43300 MRSA, PS [4] [µg/mL] | MIC S. aureus ATCC 43300 MRSA, PS+P-80 [4] [µg/mL] | MIC MRSA ([4]; ATCC 43300, 24 h) [µg/mL] | MIC MDR S.P. [5] [µg/mL] | MIC VISA [6] [µg/mL] | MIC VRE [7] [µg/mL] | MIC VRSA ([1]; S. aureus NARSA VRS4) [µg/mL]
1 | CCCCCCCCCCC(=O)N[C@@H](CCCCN)C(=O)N[C@@H](CCCCN)C(=O)N[C@@H](CCCCNC(=O)[C@H]1NC(=O)[C@H]2NC(=O)[C@H](NC(=O)[C@@H]3NC(=O)[C@H](CC(N)=O)NC(=O)[C@H](NC(=O)[C@@H](CC(C)C)NC)[C@H](O)c4ccc(c(Cl)c4)Oc4cc3cc(c4O[C@@H]3O[C@H](CO)[C@@H](O)[C@H](O)[C@H]3O[C@H]3C[C@](C)(N)[C@H](O)[C@H](C)O3)Oc3ccc(cc3Cl)[C@H]2O)c2ccc(O)c(c2)-c2c(O)cc(O)cc21)C(=O)O [Compound 19, nC10CO-KK-K(Vancomycin)-OH] | 1 (≈ 0.499 µM) | 355 | 290 | little to no effect | ≤ 0.016 | 0.06 to 0.125 | 0.063 (≈ 0.0315 µM) | 0.063 (≈ 0.0315 µM) | 0.03 (≈ 0.015 µM) | 0.06 (≈ 0.03 µM) | 0.5 (≈ 0.25 µM) | 6 (≈ 3 µM) | 
2 | CNC(=O)[C@H](CCCCNC(=O)[C@H]1NC(=O)[C@H]2NC(=O)[C@H](NC(=O)[C@@H]3NC(=O)[C@H](CC(N)=O)NC(=O)[C@H](NC(=O)[C@@H](CC(C)C)NC)[C@H](O)c4ccc(c(Cl)c4)Oc4cc3cc(c4O[C@@H]3O[C@H](CO)[C@@H](O)[C@H](O)[C@H]3O[C@H]3C[C@](C)(N)[C@H](O)[C@H](C)O3)Oc3ccc(cc3Cl)[C@H]2O)c2ccc(O)c(c2)-c2c(O)cc(O)cc21)NC(=O)[C@H](CCCCN)NC(=O)[C@H](CCCCN)NC(=O)[C@H](CCCCNC(=O)c1ccc(Oc2ccccc2)cc1)NC(=O)c1ccc(Oc2ccccc2)cc1 [Compound 24, POB2K-KK-K(Vancomycin)-NHMe] |  | 140 | 100 | comparable fluorescence intensity to oritavancin | ≤ 0.016 | 1 (≈ 0.422 µM) | 2 (≈ 0.845 µM) | ≤ 0.016 |  | <0.003 | 0.125 (≈ 0.0528 µM) | 0.5 (≈ 0.211 µM) | 0.08 (≈ 0.0338 µM)
